Measurements taken from patent US5504105A, “Pharmaceutical compositions containing ipriflavone, process for the preparation thereof and relative therapeutic use” (priority 1990, dated 1996).

What was measured:
[1] = in vivo; cited from earlier work
[2] = In-vivo bioavailability test: urinary excretion, capsules vs tablets, 8 healthy adult volunteers; parameters: species or system healthy adult volunteers (human); conditions: first study
Experimental: Concomitant drug treatment was avoided.
Urine was collected over the 24 hour period before treatment and on the tenth and eleventh days over the periods 0-24 hours and 24-48 hours after the assumption of the last dose. A homogenous sample (10 ml approx.) was prepared from the total urine excreted on the tenth and eleventh days; this sample was then stored at -20° C. until analised by HPLC.
The pharmacokinetic data were compared with those obtained administering an equivalent dose of ipriflavone in the standard formulation of 200 mg tablets three times daily (total dose 600 mg) according to an analogous study protocol.

[3] = cited from earlier work
[4] = human, in vivo
Experimental: (§1) In this comparative study all the conditions that could influence in some measure the bioavailability behaviour such as meals, drug administration or samples collection were strictly standardized.
(§2) The study was carried out in twelve young healthy volunteers in good health.
(§3) All the subjects were on a standard diet for all the period of the study.
(§4) For each treatment, after an overnight fast, each subject received at 8:00 a.m. on Day 1 the first oral dosing. From Day 1 to Day 10 the daily doses were administered during the meals. The two different treatments (A and B) were the following:
(§5) Treatment A: one 200 mg Ipriflavone Tablet 3 times daily at 8:00 a.m. , 1:00 p.m. and 8:00 p.m.;
(§6) Treatment B: one 300 mg Ipriflavone Scherer capsule two times daily at 8:00 a.m. and 8:00 p.m.

[5] = Further comparative bioavailability study: urinary excretion, treatments A and B, twelve healthy volunteers; format: in vivo, young healthy volunteers (human); conditions: each treatment, second study
Experimental: as §1, §2, §3, §4, §5, §6

Compound: CC(C)Oc1ccc2c(=O)c(-c3ccccc3)coc2c1 [Ipriflavone]
- effectiveness in osteoporosis [1]: effective in preventing and treating post-menopausal and senile osteoporosis
- unchanged ipriflavone in urine [2]: no detectable levels
- half-life ([3]; human, in vivo, po): 9.8 h
- peak plasma concentration of the unchanged drug ([3]; human, in vivo, po): 170 ng/mL
- time to peak plasma concentration after administration ([3]; human, in vivo, po): 1.3 h
- absorption and metabolism in man ([3]; oral, man): absorbed rapidly and, furtherly, extensively metabolised equally rapidly
- mean increment in bioavailability [4]: 35%
- plasma levels / metabolization in man [4]: could not be quantified in several subjects
- unchanged ipriflavone in urine [5]: no unchanged ipriflavone levels were found
